From patent publication US9776995B2, “Bicyclic sulfonamide compounds as sodium channel inhibitors” (AMGEN INC., priority 2013, dated 2017)

Each compound was assayed against Nav 1.7 (Homo sapiens (Human), UniProt Q15858) (assay: Nav 1.7 in vitro PX assay (PatchXpress whole cell voltage clamp)). Conditions: not given.
Format: cell-based

Sequence of Nav 1.7 (Q15858 whole entry): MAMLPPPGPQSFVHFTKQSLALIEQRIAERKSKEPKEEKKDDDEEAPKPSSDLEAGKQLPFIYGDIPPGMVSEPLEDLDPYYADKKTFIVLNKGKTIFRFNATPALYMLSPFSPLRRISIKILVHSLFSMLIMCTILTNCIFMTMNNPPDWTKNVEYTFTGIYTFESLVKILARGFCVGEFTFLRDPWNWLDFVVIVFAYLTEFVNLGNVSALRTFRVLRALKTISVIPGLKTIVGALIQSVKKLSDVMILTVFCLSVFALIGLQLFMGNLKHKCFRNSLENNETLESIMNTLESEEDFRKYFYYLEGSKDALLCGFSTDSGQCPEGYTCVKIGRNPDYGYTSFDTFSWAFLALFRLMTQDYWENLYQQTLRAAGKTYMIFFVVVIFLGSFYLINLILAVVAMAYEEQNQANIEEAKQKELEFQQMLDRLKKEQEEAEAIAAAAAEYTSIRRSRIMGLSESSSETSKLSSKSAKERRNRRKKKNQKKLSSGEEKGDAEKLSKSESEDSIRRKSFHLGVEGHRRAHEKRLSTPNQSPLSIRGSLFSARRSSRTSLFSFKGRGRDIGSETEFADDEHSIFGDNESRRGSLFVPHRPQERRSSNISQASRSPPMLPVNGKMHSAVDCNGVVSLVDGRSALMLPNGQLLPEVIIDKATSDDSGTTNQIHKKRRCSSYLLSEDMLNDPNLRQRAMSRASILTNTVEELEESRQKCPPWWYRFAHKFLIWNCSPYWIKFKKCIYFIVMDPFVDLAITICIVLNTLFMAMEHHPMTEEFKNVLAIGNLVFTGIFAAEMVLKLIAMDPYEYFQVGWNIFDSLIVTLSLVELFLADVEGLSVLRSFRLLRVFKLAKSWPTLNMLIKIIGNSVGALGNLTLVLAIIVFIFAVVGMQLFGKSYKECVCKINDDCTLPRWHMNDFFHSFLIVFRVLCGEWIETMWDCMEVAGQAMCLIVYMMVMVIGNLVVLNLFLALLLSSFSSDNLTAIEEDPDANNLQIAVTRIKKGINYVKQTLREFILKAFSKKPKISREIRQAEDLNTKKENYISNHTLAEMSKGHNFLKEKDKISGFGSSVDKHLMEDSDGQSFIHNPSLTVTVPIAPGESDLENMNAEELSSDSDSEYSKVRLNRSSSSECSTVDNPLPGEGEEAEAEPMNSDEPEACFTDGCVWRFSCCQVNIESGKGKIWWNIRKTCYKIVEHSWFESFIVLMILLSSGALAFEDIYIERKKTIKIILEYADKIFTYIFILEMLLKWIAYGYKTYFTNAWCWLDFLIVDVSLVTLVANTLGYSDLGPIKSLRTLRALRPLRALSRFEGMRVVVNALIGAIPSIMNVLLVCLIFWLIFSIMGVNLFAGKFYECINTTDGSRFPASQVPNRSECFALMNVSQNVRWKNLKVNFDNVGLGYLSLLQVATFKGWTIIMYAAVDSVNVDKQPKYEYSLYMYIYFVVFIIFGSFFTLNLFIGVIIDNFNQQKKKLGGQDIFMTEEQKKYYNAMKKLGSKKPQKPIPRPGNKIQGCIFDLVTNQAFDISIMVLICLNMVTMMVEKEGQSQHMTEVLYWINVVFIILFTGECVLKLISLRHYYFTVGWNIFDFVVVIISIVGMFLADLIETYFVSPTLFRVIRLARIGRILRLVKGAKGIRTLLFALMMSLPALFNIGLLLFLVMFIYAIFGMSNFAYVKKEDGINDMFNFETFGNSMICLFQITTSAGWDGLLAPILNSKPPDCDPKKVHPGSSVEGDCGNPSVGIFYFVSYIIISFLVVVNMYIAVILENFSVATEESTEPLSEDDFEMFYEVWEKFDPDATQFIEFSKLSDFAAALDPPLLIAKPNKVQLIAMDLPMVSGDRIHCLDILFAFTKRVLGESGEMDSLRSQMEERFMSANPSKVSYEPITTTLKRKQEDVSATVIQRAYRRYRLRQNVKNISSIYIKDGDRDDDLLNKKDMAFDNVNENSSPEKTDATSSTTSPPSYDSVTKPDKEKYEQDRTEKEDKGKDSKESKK

Row | SMILES | IC50 [nM]
1 | COc1cc(C(F)(F)F)c(Cl)cc1-c1ncnc2cc(S(=O)(=O)Nc3ccon3)ccc12 [Example 59, 4-(5-CHLORO-2-METHOXY-4-(TRIFLUOROMETHYL)PHENYL)-N-(ISOXAZOL-3-YL)QUINAZOLINE-7-SULFONAMIDE] | 182
2 | COc1cc(-c2cccc(F)c2)c(Cl)cc1-c1ncnc2cc(S(=O)(=O)Nc3cscn3)ccc12 [Example 378, 4-(2-chloro-3′-fluoro-5-methoxy-[1,1′-biphenyl]-4-yl)-N-(thiazol-4-yl)quinazoline-7-sulfonamide 2,2,2-trifluoroacetate] | 231

Same assay, conditions: HEK 293 cells stably transfected with human Nav1.7; PatchXpress; partially inactivated state

Row | IC50 [nM] | SMILES
3 | 72 | COc1cc(-c2cccc(F)c2)c(Cl)cc1-c1c(C)ncc2cc(S(=O)(=O)Nc3ccon3)ccc12 (atropisomer, axis not shown; (M)) [Example 317, (M)-4-(2-chloro-3′-fluoro-5-methoxy-4-biphenylyl)-N-3-isoxazolyl-3-methyl-7-isoquinolinesulfonamide]
4 | 48 | COc1cc(-c2cc(F)cc(Cl)c2)c(F)cc1-c1cn(C)c(=O)c2cc(S(=O)(=O)Nc3ccon3)ccc12 [Example 453, 4-(3′-CHLORO-2,5′-DIFLUORO-5-METHOXY-[1,1′-BIPHENYL]-4-YL)-N-(ISOXAZOL-3-YL)-2-METHYL-1-OXO-1,2-DIHYDROISOQUINOLINE-7-SULFONAMIDE]
5 | 78 | COc1cc(-c2ccc(F)c(Cl)c2)c(C)cc1-c1ncnc2cc(S(=O)(=O)Nc3ncccn3)ccc12 [Example 345, 4-(3′-chloro-4′-fluoro-5-methoxy-2-methyl-[1,1′-biphenyl]-4-yl)-N-(pyrimidin-2-yl)quinazoline-7-sulfonamide]
6 | 45 | COc1cc(-c2cccc(F)c2)c(Cl)cc1-c1[nH]c(=O)cc2cc(S(=O)(=O)Nc3ncccn3)ccc12 [Example 553, 1-(2-chloro-3′-fluoro-5-methoxy-4-biphenylyl)-3-oxo-N-2-pyrimidinyl-2,3-dihydro-6-isoquinolinesulfonamide]
7 | 41 | COc1cc(-c2cccc(F)c2)c(Cl)cc1-c1[nH]c(=O)cc2cc(S(=O)(=O)Nc3ccon3)ccc12 [Example 394, 1-(2-chloro-3′-fluoro-5-methoxy-[1,1′-biphenyl]-4-yl)-N-(isoxazol-3-yl)-3-oxo-2,3-dihydroisoquinoline-6-sulfonamide 2,2,2-trifluoroacetate]
8 | 199 | COc1cc(-c2c(F)cccc2F)c(C)cc1-c1ncnc2cc(S(=O)(=O)Nc3ccon3)ccc12 [Example 565, 4-(2′,6′-difluoro-5-methoxy-2-methyl-4-biphenylyl)-N-3-isoxazolyl-7-quinazolinesulfonamide]
9 | 40 | COc1cc(F)cc(-c2cc(OC)c(-c3nccc4cc(S(=O)(=O)Nc5ccon5)ccc34)cc2F)c1 [Example 316, 1-(2,3′-difluoro-5,5′-dimethoxy-4-biphenylyl)-N-3-isoxazolyl-6-isoquinolinesulfonamide]
10 | 94 | COc1cc(-c2cc(F)cc(F)c2)c(C)cc1-c1ncnc2cc(S(=O)(=O)Nc3ncccn3)ccc12 [Example 438, 4-(3′,5′-DIFLUORO-5-METHOXY-2-METHYL-[1,1′-BIPHENYL]-4-YL)-N-(PYRIMIDIN-2-YL)QUINAZOLINE-7-SULFONAMIDE]
11 | 65 | COc1cc(-c2cccc(Cl)c2)c(C)cc1-c1ncnc2cc(S(=O)(=O)Nc3ncccn3)ccc12 [Example 440, 4-(3′-CHLORO-5-METHOXY-2-METHYL-[1,1′-BIPHENYL]-4-YL)-N-(PYRIMIDIN-2-YL)QUINAZOLINE-7-SULFONAMIDE]

Second part, the compound before the results:

Row | SMILES | IC50 [nM]
12 | COc1cc(-c2cccc(F)c2)c(Cl)cc1-c1c(C#N)cnc2cc(S(=O)(=O)Nc3ccon3)ccc12 (atropisomer, axis not shown; (M)) [Example 334, (M)-4-(2-chloro-3′-fluoro-5-methoxy-[1,1′-biphenyl]-4-yl)-3-cyano-N-(isoxazol-3-yl)quinoline-7-sulfonamide] | 101
13 | CCc1cnc2cc(S(=O)(=O)Nc3ccon3)ccc2c1-c1cc(Cl)c(-c2cccc(F)c2)cc1OC (atropisomer, axis not shown; (M)) [Example 332, (M)-4-(2-chloro-3′-fluoro-5-methoxy-[1,1′-biphenyl]-4-yl)-3-ethyl-N-(isoxazol-3-yl)quinoline-7-sulfonamide] | 33700
14 | COc1cc(-c2cccc(F)c2)c(Cl)cc1-c1c(N)cnc2cc(S(=O)(=O)Nc3ccon3)ccc12 [Example 336, 3-amino-4-(2-chloro-3′-fluoro-5-methoxy-[1,1′-biphenyl]-4-yl)-N-(isoxazol-3-yl)quinoline-7-sulfonamide] | 35
15 | COc1cc(-c2cccc(Cl)c2)c(F)cc1-c1ncnc2cc(S(=O)(=O)Nc3ccsn3)ccc12 [Example 377, 4-(3′-Chloro-2-fluoro-5-methoxy-4-biphenylyl)-N-3-isothiazolyl-7-quinazolinesulfonamide] | 90
16 | COc1cc(F)c(-c2cncc(F)c2)cc1-c1nccc2cc(S(=O)(=O)Nc3ccon3)ccc12 [Example 392, 1-(4-fluoro-5-(5-fluoropyridin-3-yl)-2-methoxyphenyl)-N-(isoxazol-3-yl)isoquinoline-6-sulfonamide 2,2,2-trifluoroacetate] | 491

Same assay, conditions: PatchXpress (PX)

Row | IC50 [nM] | SMILES
17 | 728 | COc1cc(C(F)F)c(C)cc1-c1nccc2cc(S(=O)(=O)Nc3ccon3)ccc12 [Example 250, 1-(4-(difluoromethyl)-2-methoxy-5-methylphenyl)-N-3-isoxazolyl-6-isoquinolinesulfonamide]
18 | 12.1 | COc1cc(-c2cccc(Cl)c2)c(C)cc1-c1ncnc2cc(S(=O)(=O)Nc3ccon3)ccc12 [Example 264, 4-(3′-chloro-5-methoxy-2-methyl-4-biphenylyl)-N-3-isoxazolyl-7-quinazolinesulfonamide]
19 | 222 | COc1cc(-c2cccc(F)c2)c(Cl)cc1-c1nccc2cc(S(=O)(=O)Nc3ncco3)ccc12 [Example 257, 1-(2-chloro-3′-fluoro-5-methoxy-4-biphenylyl)-N-1,3-oxazol-2-yl-6-isoquinolinesulfonamide]
20 | 431 | COc1cc(C(F)F)c(C2CC2)cc1-c1nccc2cc(S(=O)(=O)Nc3ccon3)ccc12 [Example 251, 1-(5-cyclopropyl-4-(difluoromethyl)-2-methoxyphenyl)-N-3-isoxazolyl-6-isoquinolinesulfonamide]
21 | 242 | COc1cc(-c2cc(C)c(C)cc2C)c(C)cc1-c1nccc2cc(S(=O)(=O)Nc3ccon3)ccc12 [Example 275, N-3-isoxazolyl-1-(5-methoxy-2,2′,4′,5′-tetramethyl-4-biphenylyl)-6-isoquinolinesulfonamide]
22 | 18.4 | COc1cc(-c2cccc(C(F)(F)F)c2)c(C)cc1-c1ncnc2cc(S(=O)(=O)Nc3ccon3)ccc12 [Example 265, N-3-isoxazolyl-4-(5-methoxy-2-methyl-3′-(trifluoromethyl)-4-biphenylyl)-7-quinazolinesulfonamide]
23 | 63.2 | COc1cc(-c2ccc(F)c(C)c2)c(C)cc1-c1nccc2cc(S(=O)(=O)Nc3ccon3)ccc12 [Example 274, 1-(4′-fluoro-5-methoxy-2,3′-dimethyl-4-biphenylyl)-N-3-isoxazolyl-6-isoquinolinesulfonamide]

Further lines, the compound ahead of its results:

Row | SMILES | IC50 [nM]
24 | COc1cc(Cl)c(C)cc1-c1ncnc2cc(S(=O)(=O)Nc3ccon3)ccc12 [Example 247, 4-(4-chloro-2-methoxy-5-methylphenyl)-N-3-isoxazolyl-7-quinazolinesulfonamide] | 243
25 | COc1cc(-c2ccc(F)c(F)c2)c(C)cc1-c1nccc2cc(S(=O)(=O)Nc3ccon3)ccc12 [Example 62, 1-(3′,4′-DIFLUORO-5-METHOXY-2-METHYL-[1,1′-BIPHENYL]-4-YL)-N-(ISOXAZOL-3-YL)ISOQUINOLINE-6-SULFONAMIDE] | 37.6
26 | COc1cc(C(F)(F)F)c(Cl)cc1-c1nccc2cc(S(=O)(=O)Nc3ccon3)ccc12 [Example 249, 1-(5-chloro-2-methoxy-4-(trifluoromethyl)phenyl)-N-3-isoxazolyl-6-isoquinolinesulfonamide] | 224
27 | COc1cc(-c2cccc(F)c2)c(Cl)cc1-c1nnc(OC)c2cc(S(=O)(=O)Nc3ccon3)ccc12 [Example 55, 1-(2-CHLORO-3′-FLUORO-5-METHOXY-[1,1′-BIPHENYL]-4-YL)-N-(ISOXAZOL-3-YL)-4-METHOXYPHTHALAZINE-6-SULFONAMIDE] | 32.6
28 | COc1cc(-c2ccc(C)c(Cl)c2)c(Cl)cc1-c1nncc2cc(S(=O)(=O)Nc3ccon3)ccc12 [Example 246, 1-(2,3′-dichloro-5-methoxy-4′-methyl-4-biphenylyl)-N-3-isoxazolyl-6-phthalazinesulfonamide] | 17.2

Same assay, conditions: in-vitro Nav 1.7 PX (PatchXpress)

Row | IC50 [nM] | SMILES
29 | 60.3 | COc1ccc(F)cc1-c1cc(OC)c(-c2nccc3cc(S(=O)(=O)Nc4ccon4)ccc23)cc1C [Example 280, 1-(5′-fluoro-2′,5-dimethoxy-2-methyl-4-biphenylyl)-N-3-isoxazolyl-6-isoquinolinesulfonamide]
30 | 40 | COc1cc(-c2cc(C)cc(F)c2)c(Cl)cc1-c1ncnc2cc(S(=O)(=O)Nc3ccon3)ccc12 [Example 309, 4-(2-chloro-3′-fluoro-5-methoxy-5′-methyl-4-biphenylyl)-N-3-isoxazolyl-7-quinazolinesulfonamide]
31 | 77.5 | COc1cc(-c2ccc(Cl)c(C)c2)ccc1-c1nccc2cc(S(=O)(=O)Nc3ccon3)ccc12 [Example 288, 1-(4′-chloro-3-methoxy-3′-methyl-4-biphenylyl)-N-3-isoxazolyl-6-isoquinolinesulfonamide]

The compounds below were run against Nav 1.5 (Homo sapiens (Human), UniProt Q14524) (assay: in-vitro Nav 1.5 PX data). Conditions: read-out: Nav 1.5 PX IC50; in-vitro PX.
Sequence of Nav 1.5 (Q14524 whole entry): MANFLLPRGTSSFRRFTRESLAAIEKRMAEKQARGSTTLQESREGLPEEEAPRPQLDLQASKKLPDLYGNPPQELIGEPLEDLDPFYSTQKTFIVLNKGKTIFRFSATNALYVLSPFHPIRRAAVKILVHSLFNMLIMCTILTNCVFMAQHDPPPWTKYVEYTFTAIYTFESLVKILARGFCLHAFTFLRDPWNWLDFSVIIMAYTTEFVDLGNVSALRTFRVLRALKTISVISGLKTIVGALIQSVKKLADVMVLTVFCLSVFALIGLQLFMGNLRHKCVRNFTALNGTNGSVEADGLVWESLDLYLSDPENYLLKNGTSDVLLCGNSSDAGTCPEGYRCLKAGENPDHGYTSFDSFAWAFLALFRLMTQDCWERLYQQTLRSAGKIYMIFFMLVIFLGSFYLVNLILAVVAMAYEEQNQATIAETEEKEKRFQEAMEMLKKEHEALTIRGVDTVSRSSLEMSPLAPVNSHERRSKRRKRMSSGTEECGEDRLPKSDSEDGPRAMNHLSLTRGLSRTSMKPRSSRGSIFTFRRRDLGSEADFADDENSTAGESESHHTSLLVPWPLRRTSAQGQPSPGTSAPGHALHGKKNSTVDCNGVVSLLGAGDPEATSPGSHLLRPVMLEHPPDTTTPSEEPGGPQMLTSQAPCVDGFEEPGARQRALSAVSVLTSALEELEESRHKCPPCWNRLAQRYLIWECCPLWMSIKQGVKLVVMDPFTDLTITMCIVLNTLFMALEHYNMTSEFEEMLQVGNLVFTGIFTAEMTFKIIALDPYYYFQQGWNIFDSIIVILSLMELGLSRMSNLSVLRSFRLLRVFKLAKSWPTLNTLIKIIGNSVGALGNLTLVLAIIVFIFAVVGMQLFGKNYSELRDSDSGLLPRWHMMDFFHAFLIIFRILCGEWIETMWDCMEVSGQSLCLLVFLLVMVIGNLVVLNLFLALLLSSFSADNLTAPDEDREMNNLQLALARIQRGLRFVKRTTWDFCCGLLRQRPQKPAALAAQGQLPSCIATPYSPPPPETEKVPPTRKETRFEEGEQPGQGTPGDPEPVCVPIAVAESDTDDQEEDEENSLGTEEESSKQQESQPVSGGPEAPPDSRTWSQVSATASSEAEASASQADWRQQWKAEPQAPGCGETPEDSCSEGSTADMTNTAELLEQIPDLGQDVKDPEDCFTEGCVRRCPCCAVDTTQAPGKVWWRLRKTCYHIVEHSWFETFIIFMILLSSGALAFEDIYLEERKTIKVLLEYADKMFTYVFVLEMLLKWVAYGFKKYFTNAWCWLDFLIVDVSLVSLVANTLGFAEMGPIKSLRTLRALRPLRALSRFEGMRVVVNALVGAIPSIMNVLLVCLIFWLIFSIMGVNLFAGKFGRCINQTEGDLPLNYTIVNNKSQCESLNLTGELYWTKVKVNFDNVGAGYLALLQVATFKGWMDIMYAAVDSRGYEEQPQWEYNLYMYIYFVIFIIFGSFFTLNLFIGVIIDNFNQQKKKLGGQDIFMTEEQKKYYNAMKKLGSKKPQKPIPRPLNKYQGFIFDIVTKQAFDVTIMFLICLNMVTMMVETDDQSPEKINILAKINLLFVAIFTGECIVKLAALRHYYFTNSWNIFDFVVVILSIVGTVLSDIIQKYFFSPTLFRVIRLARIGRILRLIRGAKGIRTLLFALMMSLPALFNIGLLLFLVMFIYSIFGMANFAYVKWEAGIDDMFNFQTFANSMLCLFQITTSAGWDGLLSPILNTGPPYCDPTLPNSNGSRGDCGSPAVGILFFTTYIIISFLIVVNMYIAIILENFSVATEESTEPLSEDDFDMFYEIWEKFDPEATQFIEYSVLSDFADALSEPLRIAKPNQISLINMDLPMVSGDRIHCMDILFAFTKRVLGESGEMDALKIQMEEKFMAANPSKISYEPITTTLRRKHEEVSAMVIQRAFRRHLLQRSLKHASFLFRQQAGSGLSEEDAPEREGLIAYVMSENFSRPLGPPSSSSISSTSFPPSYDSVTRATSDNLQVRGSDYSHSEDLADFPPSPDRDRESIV

Row | SMILES | IC50 [nM]
32 | COc1cc(-c2ccc(Cl)c(C)c2)c(C#N)cc1-c1nccc2cc(S(=O)(=O)Nc3nncs3)ccc12 [Example 228, 1-(4′-chloro-2-cyano-5-methoxy-3′-methyl-4-biphenylyl)-N-1,3,4-thiadiazol-2-yl-6-isoquinolinesulfonamide] | > 10000
33 | COc1cc(-c2ccc(Cl)c(F)c2)c(C#N)cc1-c1nccc2cc(S(=O)(=O)Nc3nncs3)ccc12 [Example 224, 1-(4′-chloro-2-cyano-3′-fluoro-5-methoxy-4-biphenylyl)-N-1,3,4-thiadiazol-2-yl-6-isoquinolinesulfonamide] | > 10000
